# Where two headings read alike, the source gives them in different places.
# What was measured:
# Pyrenophora teres = experiment: In vivo preventive test on Pyrenophora teres (net blotch on barley), Examples D, Q2 and R4; conditions: Pyrenophora teres, 336 h
# Botrytis cinerea [1] = experiment: In vitro test for the calculation of the ED50-value with microorganisms, Example Q4: Botrytis cinerea; format: cell-based; conditions: liquid culture, spore suspension, 4 to 7 days incubation, spectrometric measurement of mycelium growth
# Pyricularia oryzae = experiment: whole plant or invertebrate; format: in vivo; conditions: 192 h, read-out: efficacy
# Leptosphaeria nodorum [2] = experiment: In vitro test for the calculation of the ED50-value with microorganisms, Example Q4: Leptosphaeria nodorum; format: cell-based; conditions: liquid culture, spore suspension, 4 to 7 days incubation, spectrometric measurement of mycelium growth
# Leptosphaeria nodorum [3] = experiment: In vivo preventive Leptosphaeria nodorum test (wheat), Example N; conditions: Parastagonospora nodorum, 192 h, 500 ppm of active ingredient, preventive spray, evaluated 8 days after inoculation, read-out: efficacy
# Source text: After the spray coating has been dried, the plants are sprayed with a spore suspension of Leptosphaeria nodorum.
# Alternaria solani = experiment: In vivo preventive Alternaria test (tomatoes), Example H; conditions: 72 h, 100 ppm of active ingredient, preventive spray, evaluated 3 days after inoculation, read-out: efficacy
# Puccinia recondita = experiment: In vivo preventive test on Puccinia recondita (brown rust on wheat), Examples C and R3; conditions: Puccinia recondita, 264 h, preventive spray, evaluated 11 days after inoculation
# Septoria tritici [4] = experiment: In vitro test for the calculation of the ED50-value with microorganisms, Example Q4: Septoria tritici; format: cell-based; conditions: liquid culture, spore suspension, 4 to 7 days incubation, spectrometric measurement of mycelium growth
# Phakopsora pachyrhizi = experiment: In vivo preventive Phakopsora test (soybeans), Example I; conditions: 168 h, 100 ppm of active ingredient, preventive spray, evaluated 7 days after inoculation, read-out: efficacy
# Sphaerotheca fuliginea = experiment: In vivo preventive test on Sphaerotheca fuliginea (powdery mildew on cucurbits), Examples F and R6; conditions: Podosphaera fuliginea, 360 h, preventive spray, evaluated 15 days after inoculation
# [5] = tested on: Blumeria graminis fsp. hordei; experiment: In vivo preventive Blumeria test (barley), Example K; conditions: 168 h, 500 ppm of active ingredient, preventive spray, evaluated 7 days after inoculation, read-out: efficacy
# Source text: After the spray coating has been dried, the plants are dusted with spores of Blumeria graminis fsp. hordei.
# Botrytis cinerea [6] = experiment: In vivo preventive test on Botrytis cinerea (grey mould) on gherkin, Examples B, Q1 and R2
# Septoria tritici [7] = experiment: In vivo preventive test on Septoria tritici (leaf spot on wheat), Examples E, Q3 and R5; conditions: Zymoseptoria tritici, 576 h
# Venturia inaequalis = experiment: In vivo preventive Venturia test (apples), Example J; conditions: 240 h, read-out: efficacy
# Protocol: After the spray coating has dried on, the plants are inoculated with an aqueous conidia suspension of the causal agent of apple scab (Venturia inaequalis) and then remain for 1 day in an incubation cabinet at approximately 20° C. and a relative atmospheric humidity of 100%.
# The plants are then placed in a greenhouse at approximately 21° C. and a relative atmospheric humidity of approximately 90%.
# The test is evaluated 10 days after the inoculation.
# Fusarium culmorum = experiment: In vitro test for the calculation of the ED50-value with microorganisms, Example Q4: Fusarium culmorum; format: cell-based; conditions: liquid culture, spore suspension, 4 to 7 days incubation, spectrometric measurement of mycelium growth
# Protocol: • Solvent: Dimethyl sulfoxide • Culture medium: 14.6 g anhydrous D-glucose (VWR), 7.1 g Mycological Peptone (Oxoid), 1.4 g granulated Yeast Extract (Merck), QSP liter • Inoculum: Spore suspension
# Fungicides were solubilized in DMSO and the solution used to prepare the required range of concentrations. The final concentration of DMSO used in the assay was ≤1%.
# A spore suspension was prepared and diluted to the desired spore density.
# Fungicides were evaluated for their ability to inhibit spore germination and mycelium growth in liquid culture assay. The compounds were added in the desired concentration to the culture medium with spores. After 4 to 7 days incubation, fungi-toxicity of compounds was determined by spectrometric measurement of mycelium growth. Inhibition of fungal growth was determined by comparing the absorbance values in wells containing the fungicides with the absorbance in control wells without fungicides.
# [8] = Measurement of LogP values by HPLC on reversed phase columns (EEC directive 79/831 Annex V.A8); format: physicochemical; conditions: method [a]: LC-UV, acidic range, 0.1% formic acid in water and acetonitrile as eluent; Table 1
# Protocol: Measurement of Log P values was performed as outlined above.
# Uromyces appendiculatus = experiment: In vivo preventive test on Uromyces appendiculatus (bean rust), Examples G and R7; conditions: 264 h, preventive spray, evaluated 11 days after inoculation
smiles,measurement,setting,value
OC(Cc1ccc(Cl)cc1F)(Cn1cncc1Br)C1(Cl)CC1 (centres unmarked) [Example I-30],pest or weed control at 500 ppm,"Pyrenophora teres; 500 ppm of active ingredient, preventive spray, evaluated 14 days after inoculation, read-out: efficacy",90 to 100%
same,pest or weed control at 100 ppm,"Pyrenophora teres; Example Q2, rate of application 100 ppm, read-out: Efficacy in %",91%
same,pest or weed control at 500 ppm,"Pyrenophora teres; Example Q2, rate of application 500 ppm, read-out: Efficacy in %",94%
same,pest or weed control at 100 ppm,"Pyrenophora teres; Example R4, rate of application 100 ppm, read-out: Efficacy in %",81%
same,pest or weed control at 500 ppm,"Pyrenophora teres; Example R4, rate of application 500 ppm, read-out: Efficacy in %",94%
same,Botrytis cinerea ED50 value in ppm,Botrytis cinerea [1],0.08 ppm
same,pest or weed control at 500 ppm,Pyricularia oryzae,90 to 100%
same,Leptosphaeria nodorum ED50 value in ppm,Leptosphaeria nodorum [2],0.01 ppm
same,pest or weed control at 500 ppm,Leptosphaeria nodorum [3],90 to 100%
same,pest or weed control at 100 ppm,Alternaria solani,90 to 100%
same,pest or weed control at 500 ppm,"Puccinia recondita; 500 ppm of active ingredient, wheat, read-out: efficacy",90 to 100%
same,pest or weed control at 100 ppm,"Puccinia recondita; Example R3, wheat, 100 ppm, read-out: Efficacy in %",88%
same,pest or weed control at 500 ppm,"Puccinia recondita; Example R3, wheat, 500 ppm, read-out: Efficacy in %",94%
same,Septoria tritici ED50 value in ppm,Septoria tritici [4],<0.006 ppm
same,pest or weed control at 100 ppm,Phakopsora pachyrhizi,90 to 100%
same,pest or weed control at 500 ppm,"Sphaerotheca fuliginea; 500 ppm of active ingredient, gherkin, read-out: efficacy",90 to 100%
same,pest or weed control at 100 ppm,"Sphaerotheca fuliginea; Example R6, gherkin, 100 ppm, read-out: Efficacy in %",100%
same,pest or weed control at 500 ppm,"Sphaerotheca fuliginea; Example R6, gherkin, 500 ppm, read-out: Efficacy in %",100%
same,pest or weed control at 500 ppm,[5],90 to 100%
same,pest or weed control at 500 ppm,"Botrytis cinerea [6]; Botrytis cinerea, 500 ppm of active ingredient, preventive spray, evaluated 4 to 5 days after inoculation, read-out: efficacy",90 to 100%
same,pest or weed control at 100 ppm,"Botrytis cinerea [6]; Botrytis cinerea, Example Q1, rate of application 100 ppm, read-out: Efficacy in %",100%
same,pest or weed control at 500 ppm,"Botrytis cinerea [6]; Botrytis cinerea, Example Q1, rate of application 500 ppm, read-out: Efficacy in %",100%
same,Efficacy in %,"Botrytis cinerea [6]; Example R2, rate of application 100 ppm",100%
same,Efficacy in %,"Botrytis cinerea [6]; Example R2, rate of application 500 ppm",100%
same,pest or weed control at 500 ppm,"Septoria tritici [7]; 500 ppm of active ingredient, wheat, preventive spray, evaluated 24 days after inoculation, read-out: efficacy",90 to 100%
same,pest or weed control at 100 ppm,"Septoria tritici [7]; Example Q3, rate of application 100 ppm, wheat, read-out: Efficacy in %",94%
same,pest or weed control at 500 ppm,"Septoria tritici [7]; Example Q3, rate of application 500 ppm, wheat, read-out: Efficacy in %",98%
same,pest or weed control at 100 ppm,"Septoria tritici [7]; Example R5, wheat, preventive spray, 100 ppm, evaluated 24 days after inoculation, read-out: Efficacy in %",94%
same,pest or weed control at 500 ppm,"Septoria tritici [7]; Example R5, wheat, preventive spray, 500 ppm, evaluated 24 days after inoculation, read-out: Efficacy in %",98%
same,pest or weed control at 100 ppm,Venturia inaequalis,90 to 100%
same,Fusarium culmorum ED50 value in ppm,Fusarium culmorum,0.01 ppm
same,chromatographic logP,[8],2.55
same,pest or weed control at 500 ppm,"Uromyces appendiculatus; 500 ppm of active ingredient, bean, read-out: efficacy",90 to 100%
same,pest or weed control at 100 ppm,"Uromyces appendiculatus; Example R7, bean, 100 ppm, read-out: Efficacy in %",88%
same,pest or weed control at 500 ppm,"Uromyces appendiculatus; Example R7, bean, 500 ppm, read-out: Efficacy in %",100%
